Format in all cases: cell-based
One assay has as its target T1, mouse FP receptor (Mus musculus, UniProt P43117).
T1 construct: expressed in transfected cells; host or cells: CHO cells (FP-CHO)
Description: FP agonist activity (intracellular calcium concentration) in FP-CHO cells. Particulars: for EC50: FP-CHO cells, intracellular calcium concentration, read-out: Agonist activity on various prostanoid receptors: EC50 value, FP. An excerpt:
(§1) (1-1) Measurement of Agonist Activity on Various Mouse Prostanoid Receptors
(§2) Using CHO cells (FP-CHO, EP1-CHO and IP-CHO, respectively) in which various mouse prostanoid receptors were forcibly expressed, respectively, agonist activity of test compounds on various prostanoid receptors was studied employing an intracellular calcium concentration regarding FP and EP1, and an intracellular cyclic AMP (hereinafter, abbreviated as cAMP) production amount regarding IP, as an index.
(§3) The test compound and a control substance (PGE2 and iroprost) were dissolved with dimethyl sulfoxide (DMSO) to prepare a 10 mmol/L solution. Regarding the prepared 10 mmol/L solution, upon use, the 10 mmol/L solution was thawed, stepwisely-diluted using DMSO, and diluted with a buffer solution for measurement or a buffer solution for measurement 2, which was subjected to an experiment.
(§4) Cells forcibly expressing various mouse prostanoid receptors were standing-cultured at 37° C. in the presence of 5% CO2 using an α-MEM medium (Sigma) (for culturing FP-CHO and EP1-CHO) containing inactivated (56° C., 30 minutes) 9.8 vol % dialysed-FBS (Invitrogen) and penicillin-streptomycin-glutamine (GIBCO-BRL), or nucleic acid-containing α-MEM (Sigma) (for culturing IP-CHO) containing inactivated (56° C., 30 minutes) 9.8 vol % dialysed-FBS (Invitrogen) and penicillin-streptomycin glutamine (Invitrogen). Subculturing was performed by the following method.
(§5) The medium was removed, and washed with a phosphate-buffered physiological saline not containing Ca^2+ and Mg^2+ two times. A suitable amount of trypsin-EDTA (Invitrogen) was added, this was incubated at 37° C. for about 3 minutes, cells were peeled, and a medium having a volume which is 10-fold a volume of trypsin-EDTA was added to stop an enzymatic reaction. After cells were recovered (120 g) into a centrifuging tube, and centrifuged at room temperature for 3 minutes, the supernatant was removed. Cells were suspended in a suitable amount of a medium, and seeded in a culturing flask.
(§6) (1-2) Measurement of FP and EP1 Agonist Activity (Measurement of Intracellular Calcium Concentration)
(§7) Regarding FP-CHO and EP1-CHO, by the same method as that of subculturing, cells were peeled and suspended and, before two days from measurement, the suspension was seeded on a 96-well UV plate so that the cell number per well became 1.0×10^4, and standing-cultured at 37° C. in the presence of 5% CO2. On the measurement day, after the medium was removed from each well of the 96-well UV plate, each well was washed with a phosphate-buffered physiological saline not containing Ca^2+ and Mg^2+ once. To each well was added 100 μL of a medium containing 5 μmol/L fura 2-AM (DOJINDO), 2.5 mmol/L Probenecid (Sigma), 20 μmol/L indometacin (Sigma) and 10 mmol/L HEPES (Invitrogen), and this was incubated for about 60 minutes in a CO2 incubator. After completion of the incubation, the medium was removed, and this was washed with a buffer solution for measurement (Hank's balanced salt solution (Nissui Pharmaceutical Co., Ltd., 9.8 g of the present product was dissolved in 1 L distilled water) containing 0.1 or 1 w/v % bovine serum albumin, 2 μmol/L indometacin, 2.5 mmol/L Probenecid and 10 mmol/L HEPES-NaOH (pH 7.4)) two times. To each well was added 120 μL of a buffer solution for measurement, and this was allowed to stand in a CO2 incubator for 30 minutes, and stabilized, which was subjected to an experiment.
(§8) The 96-well UV plate was set in a fluorescent spectral photometer (FDSS-3000, Hamamatsu Photonics K.K.), and an intracellular calcium concentration was measured. A buffered solution for measurement ([…]) containing an agonist at a variety of concentrations was added to perform a reaction. Measurement of an intracellular calcium concentration was performed by irradiating cells with excited light of 340 nm and 380 nm alternately, measuring a fluorescent intensity at 500 nm, and obtaining a fluorescent intensity ratio of 2-wavelength excitation. […]
(In general: A change in cytosolic calcium serves as a functional read-out for many receptors and channels.)

The target of a further assay is T2, mouse EP1 receptor (Mus musculus, UniProt P35375).
T2 construct: expressed in transfected cells; host or cells: CHO cells (EP1-CHO)
T2 sequence (P35375 1-405): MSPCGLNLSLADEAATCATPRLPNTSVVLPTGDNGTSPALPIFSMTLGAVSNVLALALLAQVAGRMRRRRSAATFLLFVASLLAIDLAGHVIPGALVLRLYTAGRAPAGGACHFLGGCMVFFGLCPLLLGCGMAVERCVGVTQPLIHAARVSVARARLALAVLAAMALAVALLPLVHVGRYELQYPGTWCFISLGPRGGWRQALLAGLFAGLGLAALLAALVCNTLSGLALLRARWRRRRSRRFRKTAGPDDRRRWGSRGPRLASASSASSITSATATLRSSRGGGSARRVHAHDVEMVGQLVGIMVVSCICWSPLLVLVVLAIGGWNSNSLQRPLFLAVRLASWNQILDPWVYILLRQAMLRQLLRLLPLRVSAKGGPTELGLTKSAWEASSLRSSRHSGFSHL
Description: EP1 agonist activity (intracellular calcium concentration) in EP1-CHO cells. Particulars: for EC50: EP1-CHO cells, intracellular calcium concentration, read-out: Agonist activity on various prostanoid receptors: EC50 value, EP1.
Text: as §1, §2, §3, §4, §5, §6, §7, §8

In the next assay the target is T3, mouse IP receptor (Mus musculus, UniProt P43252).
T3 construct: expressed in transfected cells; host or cells: CHO cells (IP-CHO)
Description: IP agonist activity (cAMP concentration) in IP-CHO cells. The settings on record: for EC50: IP-CHO cells, cAMP production, read-out: Agonist activity on various prostanoid receptors: EC50 value, IP.
Text: as §1, §2, §3, §4, §5
(1-3) Measurement of IP Agonist Activity (Measurement of cAMP Concentration)
On the measurement day, a medium was removed, and IP-CHO was washed with a phosphate-buffered physiological saline containing 2 mmol/L EDTA and not containing Ca^2+ and Mg^2+ once. A suitable amount of a phosphate-buffered physiological containing 2 mmol/L EDTA and not containing Ca^2+ and Mg^2+ was added, this was incubated at 37° C. for about 10 minutes, cells were peeled, cells were recovered (500 g) into a centrifuging tube, and centrifuged at room temperature for 3 minutes, and the supernatant was removed.
Cells were suspended in a suitable amount of a buffer solution for measurement 1 (MEM medium (Invitrogen) containing 0.1 w/v % bovine serum albumin (Sigma) and 2 μmol/L diclofenac (Sigma)), and centrifuged at room temperature for 3 minutes at 500 g, and the supernatant was removed. Cells were suspended in a buffer solution for measurement 2 (MEM medium (Invitrogen) containing 0.1 w/v % bovine serum albumin (Sigma), 2 μmol/L diclofenac (Sigma) and 1 mmol/L 3-isobutyl-1-methylxanthine), and each 25 μL of the suspension was dispensed into a 96-well ½ area plate so that the cell number per well became 5.0×10^4. A buffer solution for measurement 2 (25 μL) containing an agonist at a variety of concentrations was added to perform a reaction at room temperature for 30 minutes. Measurement of a cAMP concentration was performed using the cAMP HTRF HiRange kit (CIS bio International). According to the two step protocol of the kit manual, each 25 μL of cAMP-D2 and cryptate diluted with a lysis buffer were added, and this was incubated at room temperature for 1 hour. After incubation for 1 hour, time resolution fluorescence at 620 nm and 660 nm when excited at 340 nm was measured using Analyst GF (Molecular Device), and a ratio (TRF ratio) was obtained, thereby, a cAMP concentration was calculated from a calibration line. […]
In general terms: cAMP levels reflect the balance of adenylyl cyclase and phosphodiesterase activity.

Molecules are shown by their SMILES.

T1 sequence (P43117 whole entry): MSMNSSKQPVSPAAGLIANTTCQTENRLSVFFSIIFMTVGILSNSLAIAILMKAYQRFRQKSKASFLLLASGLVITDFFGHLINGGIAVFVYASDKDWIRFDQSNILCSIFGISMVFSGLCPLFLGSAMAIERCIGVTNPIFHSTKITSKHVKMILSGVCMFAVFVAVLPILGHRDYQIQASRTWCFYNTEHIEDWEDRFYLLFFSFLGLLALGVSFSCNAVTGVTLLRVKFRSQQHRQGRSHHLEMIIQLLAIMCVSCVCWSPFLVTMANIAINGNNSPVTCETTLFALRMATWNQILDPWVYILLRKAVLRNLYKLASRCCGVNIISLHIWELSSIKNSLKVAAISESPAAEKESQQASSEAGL
T3 sequence (P43252 whole entry): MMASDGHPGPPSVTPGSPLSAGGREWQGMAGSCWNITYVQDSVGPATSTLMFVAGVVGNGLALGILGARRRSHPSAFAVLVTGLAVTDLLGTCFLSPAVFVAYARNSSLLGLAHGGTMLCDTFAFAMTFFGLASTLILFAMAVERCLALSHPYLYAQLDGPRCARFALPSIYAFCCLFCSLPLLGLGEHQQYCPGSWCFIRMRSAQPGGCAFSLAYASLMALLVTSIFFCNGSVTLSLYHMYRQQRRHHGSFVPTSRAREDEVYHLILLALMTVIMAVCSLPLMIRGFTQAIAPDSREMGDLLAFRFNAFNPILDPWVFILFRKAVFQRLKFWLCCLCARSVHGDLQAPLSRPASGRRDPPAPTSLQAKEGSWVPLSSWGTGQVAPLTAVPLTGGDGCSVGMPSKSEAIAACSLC

For `O=C(O)CCC[C@H]1CC[C@@H]2[C@@H](/C=C/[C@@H](O)COc3cccc(Cl)c3)[C@H](O)C[C@@H]2OC1` [Example 17 (3), 4-{(3S, 5aR, 6R, 7R, 8aS)-6-[(1E, 3R)-4-(3-chlorophenoxy)-3-hydroxy-1-buten-1-yl]-7-hydroxyoctahydro-2H-cyclopenta[b]oxepin-3-yl}butanoic acid], the figures for the EC50 on mouse FP receptor, at mouse EP1 receptor and on mouse IP receptor were 3 nM, 3200 nM and greater than 10000 nM, respectively.
For `O=C(O)CCC[C@H]1CC[C@@H]2[C@@H](/C=C/[C@@H](O)COc3cc(F)ccc3F)[C@H](O)C[C@@H]2OC1` [Example 17 (25), 4-{(3S, 5aR, 6R, 7R, 8aS)-6-[(1E, 3R)-4-(2,5-difluorophenoxy)-3-hydroxy-1-buten-1-yl]-7-hydroxyoctahydro-2H-cyclopenta[b]oxepin-3-yl}butanoic acid], in that order: 2.4 nM, 857 nM and greater than 10000 nM.
As to `O=C(O)CCC[C@H]1CC[C@@H]2[C@@H](/C=C/[C@@H](O)COc3ccccc3)[C@H](O)C[C@@H]2OC1` [Example 17 (23), 4-{(3S, 5aR, 6R, 7R, 8aS)-7-hydroxy-6-[(1E, 3R)-3-hydroxy-4-phenoxy-1-buten-1-yl]octahydro-2H-cyclopenta(b]oxepin-3-yl}butanoic acid], the EC50 on mouse FP receptor was 8.3 nM; on mouse EP1 receptor, 100 nM; on mouse IP receptor it was greater than 10000 nM.
For `Cc1cccc(OC[C@H](O)/C=C/[C@@H]2[C@H]3CC[C@H](CCCC(=O)O)CO[C@H]3C[C@H]2O)c1` [Example 17 (4), 4-{(3S, 5aR, 6R, 7R, 8aS)-7-hydroxy-6-[(1E, 3R)-3-hydroxy-4-(3-methylphenoxy)-1-buten-1-yl]octahydro-2H-cyclopenta[b]oxepin-3-yl}butanoic acid], in that order: 8.8 nM, greater than 10000 nM and greater than 10000 nM.
On to `O=C(O)CCC[C@H]1CC[C@@H]2[C@@H](/C=C/[C@@H](O)COc3ccccc3)[C@H](O)C[C@@H]2O1` [Comparative Compound A, reference compound], for which the “Agonist activity on a FP receptor (in words)” value at mouse FP receptor (summary of Table 7) was “has agonist activity”. For the same molecule, on mouse EP1 receptor (summary of Table 7), the “Agonist activity on an EP1 receptor (in words)” value is “has agonist activity”. Besides, the “Agonist activity on an IP receptor (in words)” value on mouse IP receptor (summary of Table 7) is recorded as “has agonist activity”.
Regarding `O=C(O)COC[C@H]1CC[C@@H]2[C@@H](/C=C/[C@@H](O)COc3cc(F)cc(Cl)c3)[C@H](O)C[C@@H]2OC1` [Example 29 (12), ({(3R, 5aR, 6R, 7R, 8aS)-6-[(1E,3R)-4-(3-chloro-5-fluorophenoxy)-3-hydroxy-1-buten-1-yl]-7-hydroxyoctahydro-2H-cyclopenta[b]oxepin-3-yl}methoxy)acetic acid], the EC50 was 7.1 nM at mouse FP receptor, greater than 10000 nM at mouse EP1 receptor and greater than 10000 nM on mouse IP receptor.
Turning to `O=C(O)CCC[C@H]1CC[C@@H]2[C@@H](/C=C/C(F)(F)COc3ccccc3)[C@H](O)C[C@@H]2OC1` [Example 32, 4-{(3S, 5aR, 6R, 7R, 8aS)-6-[(1E)-3,3-difluoro-4-phenoxy-1-buten-1-yl]-7-hydroxyoctahydro-2H-cyclopenta[b]oxepin-3-yl}butanoic acid], the EC50 at mouse FP receptor was 1.6 nM; at mouse EP1 receptor, greater than 10000 nM; on mouse IP receptor, greater than 10000 nM.

As a reminder, the EC50 is the midpoint of the concentration-response curve.
